From patent US4075332A (priority 1976, dated 1978) come the findings set out here.

Series [1] deals with Root-knot nematode. The following applies: in vivo.
In series [2] the test system is Southern army worm. The following applies: in vivo.
Series [3] relates to Mexican bean beetle. The experiment in a line: whole plant or invertebrate. The following applies: Epilachna varivestis.
For series [4], the system named is Spider mites. Kind of series: whole plant or invertebrate. The following applies: Tetranychus urticae.
For series [5], the system named is Bean aphids. The experiment in a line: whole plant or invertebrate. The following applies: Aphis fabae, 48 h.
Series [6] deals with House fly. Kind of series: whole plant or invertebrate. The note with it: Musca domestica, 48 h.
Series [7] concerns Corn rootworm larvae. The experiment in a line: whole plant or invertebrate. The following applies: soil, 120 h.
Series [8] in a line: in vivo. The following applies: rat, po.
Series [9] has as its system Spider mites. Kind of series: Mite, Systemic. Type of series: in vivo, two-spotted mite. The following applies: Tetranychus urticae. The procedure: (§1) In the insecticidal and miticidal tests, the experimental compounds were tested as aqueous emulsions. These emulsions were prepared by dissolving the compound in acetone and dispersing it in distilled water with Triton X-100, an alkylaryl polyether alcohol derived by the reaction of i-octylphenol with ethylene oxide, to give spray emulsions containing the desired concentrations of the compound. These emulsions were then used in standard laboratory tests described below.
Mite, Systemic: Bean plants infested with the two-spotted mites were treated by applying 20 ml. of the formulated test chemical to the soil.

The subject of series [10] is Bean aphids. The experiment in a line: Aphid, Systemic. Type of series: in vivo, bean aphid. The note with it: Aphis fabae, 48 h. The procedure: as §1
Aphid, Systemic: Nasturtium plants infested with the bean aphid were treated by applying 20 ml. of the formulated test chemical to the soil. The degree of aphid control was rated after 2 days.

For series [11], the system named is Southern army worm. The experiment in a line: whole plant or invertebrate. The note with it: Spodoptera eridania, read-out: Mortality, % - Southern ArmyWorm.
[12] abbreviates: read-out: Mortality Produced, % - Spider Mites Systemic.
Where [13] appears, read: read-out: Mortality Produced, % - Bean Aphids Systemic.
Where [14] appears, read: read-out: Mortality Produced, % - Mex.Bean Beetle.
[15] abbreviates: 48 h, read-out: Mortality Produced, % - Spider Mites Contact.
The mark [16] stands for this setting: read-out: Mortality Produced, % - Bean Aphids Contact.
The mark [17] stands for this setting: read-out: Mortality Produced, % - House Flies.
Setting [18] is: read-out: Mortality Produced, % -.
Setting [19] is: read-out: Mortality, % - Spider Mites Systemic.
The mark [20] stands for this setting: read-out: Mortality, % - Mexican Bean Beetle.
Setting [21] is: 48 h, read-out: Mortality, % - Spider Mites Contact.
[22] abbreviates: read-out: Mortality, % - Bean Aphids Contact.
Setting [23] is: read-out: Mortality, % - Bean Aphids Systemic.
[24] abbreviates: read-out: Mortality, % - Mexican Bean Beetles.

Like-named read-outs stand apart in the source and are kept apart here.

Usually mortality stands for the percentage killed. In the case of `CCCSP(=O)(OCC)SCC(CC)SC` (centres unmarked) [Example 38, O-Ethyl S-1-Propyl S'-2-Methylthiobutyl Dithiophosphate], the “Nematodes Control % at 25 lb/acre” value in [1] is recorded as 90%. In addition, in series [2] (southern armyworm), the “Mortality Produced at 50 ppm, % - Southern Army Worm” value is 80%. Moreover, the mortality at 50 ppm in series [3] (read-out: Mortality Produced at 50 ppm, % - Mexican Bean Beetles) turned out to be 10%; in series [4] (read-out: Mortality Produced at 50 ppm, % - Spider Mites) it was 100%; in series [5] (read-out: Mortality Produced at 50 ppm, % - Bean Aphids), 100%; in series [6] (read-out: Mortality Produced at 50 ppm, % - Houseflies) it was 100%. The mortality at 2.5 ppm in [7] (read-out: Corn Rootworm Mortality, % at 2.5 ppm) is 40%.

For orientation: LD50 means the dose at which mortality reaches 50%. Read a high LD50 as a less toxic substance. As to `CCOP(=S)(OCC)SCC(C)SCC` (centres unmarked) [reference compound], the LD50 at 336 h in series [8] is 25 to 50 mg/kg.

Take `CCOP(=O)(SCC(C)SC)SC(C)C` (centres unmarked) [Example 42, O-Ethyl S-2-Propyl S-2-Methylthiopropyl Dithiophosphate]: the mortality at 50 ppm was 0% in series [9] (setting [12]); 20% in series [10] (setting [13]); 100% in series [3] (setting [14]); 100% in series [4] (setting [15]); 50% in [5] (setting [16]); 0% in series [6] (setting [17]). The mortality at 250 ppm in [9] (setting [12]) was 100%; in series [10] (setting [13]), 80%; in series [3] (setting [14]), 100%; in [4] (setting [15]), 100%; in series [5] (setting [16]) it was 100%; in [6] (setting [17]) it was 100%.

Consider `CCOP(=S)(OCC)SCC(C)SC` (centres unmarked) [reference compound], for which the median lethal dose (LD50) at 336 h in series [8] was in the range of 25 to 50 mg/kg.

For the molecule `CCCCSP(=O)(OCC)SCC(C)SC` (centres unmarked) [Example 41, O-Ethyl S-1-Butyl S'-Methylthiopropyl Dithiophosphate], the mortality at 50 ppm in series [9] (setting [12]) was found to be 0%; in series [10] (setting [13]), 0%; in series [3] (setting [14]), 80%; in [4] (setting [15]), 100%; in series [5] (setting [16]) it was 60%; in series [6] (setting [17]), 0%. Besides, the mortality at 250 ppm came out at 100% in series [9] (setting [12]); 40% in series [10] (setting [13]); 100% in series [3] (setting [14]); 100% in [4] (setting [15]); 100% in series [5] (setting [16]); 100% in [6] (setting [17]). For the same molecule, the “Mortality Produced, % - S.Army Worm” value in [2] (southern armyworm) is on record as 0%.

For the molecule `CCCSCCSP(=O)(OCC)SCCC` (centres unmarked) [2 (CIP)], in series [8], the LD50 at 336 h came out at 215 mg/kg.

Consider `CCOP(=O)(SCC(C)C)SCC(C)SC` (centres unmarked) [Example 37, O-Ethyl S-2-Methylpropyl S'-2-Methylthiopropyl Dithiophosphate], for which the mortality at 50 ppm came out at 100% in series [9] (setting [12]); 70% in [10] (setting [13]); 100% in series [3] (setting [14]); 60% in [4] (setting [15]); 10% in series [5] (setting [16]); 45% in series [6] (setting [17]). Moreover, the mortality at 250 ppm in series [9] (setting [12]), in series [10] (setting [13]), in [3] (setting [14]), in series [4] (setting [15]), in series [5] (setting [16]) and in series [6] (setting [17]) was 100% throughout.

Take `CCCSP(=O)(OC)SCC(C)SC` (centres unmarked) [Example 40, O-Methyl S-1-Propyl S'-2-Methylthiopropyl Dithiophosphate]: the mortality at 50 ppm in series [9] (setting [12]) is 100%; in [10] (setting [13]), 100%; in [3] (setting [14]), 0%; in series [4] (setting [15]), 100%; in series [5] (setting [18]), 100%; in [6] (setting [17]), 100%. Also, the mortality at 250 ppm in [9] (setting [12]), in series [10] (setting [13]), in [3] (setting [14]), in [4] (setting [15]), in series [5] (setting [18]) and in [6] (setting [17]) was 100% throughout.

For the molecule `CCCSP(=O)(OCC)SCC(C)SC(C)C` (centres unmarked) [Example 35, O-Ethyl S-1-Propyl S'-2-i-Propylthiopropyl Dithiophosphate], in series [1], the “Nematode Control,%” value was 100%. The “S.Armyworm Mortality,%” value in series [2] amounted to 100%. Besides, the mortality at 50 ppm in series [3] (read-out: Mexican Bean Beetles Mortality,%) is 100%; in [5] (read-out: Bean Aphids Mortality,%), 50%. Further, the mortality at 10 ppm in series [4] (read-out: Spider Mites Mortality,%) came to 100%. Besides, the mortality at 2.5 ppm in series [7] (read-out: Corn Rootworm Mortality,%) was found to be 70%.

With `CCCSP(=O)(OCC)SCC[S+]([O-])C(C)C` (centres unmarked) [Example 8, O-Ethyl S-1-Propyl S'-2-i-Propylsulfinylethyl Dithiophosphate], the mortality at 250 ppm is 90% in series [9] (setting [19]); 90% in [11]; 100% in series [3] (setting [20]); 95% in series [4] (setting [21]); 100% in series [5] (setting [22]). For the same molecule, the “Nematode Control,% at 25 lb/acre” value in [1] is 75%.

With `CCOP(=O)(SCC)SCCSCC` (centres unmarked) [reference compound], in [8], the LD50 at 336 h amounted to 100 mg/kg.

For the molecule `CCCSP(=O)(OCC)SCCSc1ccc(Cl)cc1` (centres unmarked) [Example 5, O-Ethyl S-1-Propyl S'-2-p-Chlorophenylthioethyl Dithiophosphate], the mortality at 250 ppm turned out to be 40% in [9] (setting [19]); 10% in [10] (setting [23]); 100% in [3] (setting [24]); 100% in series [4] (setting [21]); 95% in series [5] (setting [22]).

In the case of `CCCSP(=O)(OCC)SCC(C)S(C)(=O)=O` (centres unmarked) [Example 9, O-Ethyl S-1-Propyl S'-2-Methylsulfonylpropyl Dithiophosphate], the mortality at 250 ppm was 90% in [9] (setting [19]); 95% in series [10] (setting [23]); 100% in [11]; 100% in series [3] (setting [20]); 90% in [4] (setting [21]); 90% in [5] (setting [22]). The “Nematode Control,% at 25 lb/acre” value in series [1] is on record as 80%.

Consider `CCCSP(=O)(OCC)SCCS(C)(=O)=O` (centres unmarked) [Example 7, O-Ethyl S-1-Propyl S'-(2-Methylsulfonylethyl) Dithiophosphate], for which the mortality at 250 ppm in [9] (setting [19]), in series [10] (setting [23]), in series [11], in series [3] (setting [20]), in [4] (setting [21]) and in series [5] (setting [22]) was 100% throughout. Further, the “Nematode Control,% at 25 lb/acre” value in series [1] is 100%. The LD50 at 336 h in series [8] is more than 100 mg/kg.

On to `CCOP(=S)(OCC)SCSc1ccc(Cl)cc1` [Trithion, reference compound], for which, in series [2] (southern armyworm), the “Southern Army Worm Mortality, %” value is 0%. Further, the mortality at 100 ppm in series [3] (read-out: Mexican Bean Beetle Larvae Mortality, %) stood at 90%. In series [6] (read-out: House Fly Spray Mortality, % (at 20 ppm)), the mortality at 20 ppm was found to be 80%.

As to `CCCSP(=O)(OCC)SCCSC(C)C` (centres unmarked) [Example 3, O-Ethyl S-1-Propyl S'-2-i-Propylthioethyl Dithiophosphate], the mortality at 250 ppm is 85% in [9] (setting [19]); 100% in series [11]; 100% in series [3] (setting [24]); 100% in series [4] (setting [21]); 70% in series [5] (setting [22]).

Take `CCCOP(=O)(SCCC)SCC(C)SC` (centres unmarked) [Example 43, O,S-Di-n-propyl S'-2-Methylthiopropyl dithiophosphate]: the mortality at 50 ppm was determined as 0% in [9] (setting [12]); 0% in series [10] (setting [13]); 80% in [3] (setting [14]); 50% in series [4] (setting [15]); 80% in [5] (setting [18]); 70% in [6] (setting [17]). The mortality at 250 ppm turned out to be 100% in [9] (setting [12]); 20% in series [10] (setting [13]); 100% in series [3] (setting [14]); 100% in [4] (setting [15]); 80% in series [5] (setting [18]); 100% in series [6] (setting [17]). Besides, the “Mortality Produced, % - S.Army Worm” value in series [2] (southern armyworm) was 0%.

In the case of `CCCSCCSP(=O)(OCC)SCCC` (centres unmarked) [Example 2, O-Ethyl S-1-Propyl S'-2-n-Propylthioethyl Dithiophosphate], the mortality at 250 ppm worked out at 100% in series [9] (setting [19]); 75% in series [10] (setting [23]); 100% in series [3] (setting [24]); 100% in [4] (setting [21]); 90% in [5] (setting [22]); 100% in [6] (read-out: Mortality, % - House Flies).
